In article PMC9221546, “New Phenylglycinamide Derivatives with Hybrid Structure as Candidates for New Broad-Spectrum Anticonvulsants” (Cells, 2022):
Where two headings read alike, the source gives them in different places.

Key:
[1] = PAMPA permeability (Pre-coated PAMPA Plate System Gentest); type: in vitro ADME
Text: Caffeine (CFN) and norfloxacin (NFX) were used as the high- and low-permeable references, respectively.

[2] = system: MES-induced seizures in mice; assay: Maximal electroshock seizure (MES) test; type: in vivo
Experimental: (§1) Adult male Albino Swiss mice that weighed between 22 and 26 g were used in the in vivo studies. They were housed under standardized housing conditions in colony cages and had free access to food as well as tap water. The animals were left to adapt under laboratory conditions for 7 days. All procedures involving animals and their care were performed in accordance with the current European Community and Polish legislation on animal experimentation.
(§2) In the initial screening studies, four mice per group were randomly assigned to each experimental group (each mouse was used only once). To evaluate the ED50 or TD50 values, 3–4 groups that consisted of eight animals were injected with various doses of tested compounds. The protective indexes (PIs) for the compounds that were investigated and reference ASDs were calculated by dividing the TD50 value, as determined in the chimney test (or rotarod test), by the respective ED50 value, as determined in the MES, scPTZ, or 6 Hz (32 mA or 44 mA) tests (PI = TD50/ED50). The PIs is a measure of the potential therapeutic window of the tested agent.
(§3) All substances were suspended in Tween 80 (1% aqueous solution) and administered i.p. as a single injection at a dose of 10 mL/kg. On each day of experimentation, fresh solutions were prepared. The results are summarized in Table S1 (screening data) and Table 2 (ED50, TD50, and PI values, see Section 3 Results and Discussion).
(§4) The detailed in vivo procedures are described elsewhere: the maximal electroshock seizure test (MES), the subcutaneous pentylenetetrazole seizure test (scPTZ), the 6 Hz psychomotor seizure model (32 mA and 44 mA), and the chimney test.
(§5) The basic animal seizure models such as the MES, 6 Hz (32 mA or 44 mA), and the scPTZ are still a standard in the discovery and development of new ASDs. In vivo screening approaches enable the identification of compounds with unidentified and potentially novel mechanisms of action besides substances with well-established pharmacodynamics. Bearing in mind the aforementioned facts, compounds 45–66 were initially studied in the MES test and in the 6 Hz seizure model (32 mA) after intraperitoneal (i.p.) administration at a screening dose of 100 mg/kg in mice at a time point of 0.5 h (the screening group consisted of four mice, the results obtained are summarized in Table S1). It should be stressed that the MES test is an experimental model of human tonic–clonic epilepsy as well as partial convulsions with or without secondary generalization, the 6 Hz model (32 mA) corresponds to human focal epilepsy, whereas the scPTZ test relates to human generalized absence or myoclonic seizures.
(§6) We also established the median toxic doses (TD50) in the chimney test 0.5 h post i.p. administration of these compounds. Both the aforementioned parameters enabled the calculation of the protective indexes (PIs).

[3] = system: 6 Hz (32 mA) seizures in mice; assay: 6 Hz (32 mA) psychomotor seizure model; type: in vivo; conditions: Mus musculus, ip; for responders at 100 mg/kg: 100 mg/kg i.p., 0.5 h
Experimental: as §1, §2, §3, §4, §5, §6

[4] = system: scPTZ-induced seizures in mice; assay: Subcutaneous pentylenetetrazole (scPTZ) seizure test; type: in vivo; conditions: 100 mg/kg i.p., 0.5 h
Experimental: as §1, §2, §3, §4, §5

[5] = Chimney test (acute neurological deficit); conditions: mouse, in vivo, ip, mice
Experimental: as §2, §3, §4
We also established the median toxic doses (TD50) in the chimney test 0.5 h post i.p. administration of these compounds. […]

TRPV1 (VR1) (h) = target: T1, TRPV1 (VR1) (h) (Homo sapiens, UniProt Q8NER1); assay: TRPV1 (VR1) (h) antagonist effect functional assay; type: cell-based; conditions: human recombinant CHO cells, read-out: % Inhibition of control agonist response, TRPV1 (antagonist effect)
T1 construct: host or cells: CHO
Experimental: Binding/functional studies were carried out commercially in Eurofins Laboratories (Poitiers, France) and Eurofins Panlabs Discovery Services Taiwan, Ltd. (New Taipei City, Taiwan) using testing procedures that were reported previously (for details see Table S2).
Table S2. Radioligand binding and functional assays. […]
Assays were performed commercially in Eurofins Laboratories (Poitiers, France) or Eurofins Panlabs Discovery Services Taiwan, Ltd. (New Taipei City, Taiwan).
Table S3. In vitro TRPV1 channel antagonist activity for compounds 45–66 (concentration of 100 µM). […]
Cmpd % Inhibition of control Cmpd % Inhibition of control agonist responsea agonist responsea
*Source: human recombinant CHO cells. a Results showing activity higher than 50% are considered to represent […]
variability of the sign al around the control level. Assays were performed commercially in Eurofins Laboratories

T1 sequence (Q8NER1 whole entry): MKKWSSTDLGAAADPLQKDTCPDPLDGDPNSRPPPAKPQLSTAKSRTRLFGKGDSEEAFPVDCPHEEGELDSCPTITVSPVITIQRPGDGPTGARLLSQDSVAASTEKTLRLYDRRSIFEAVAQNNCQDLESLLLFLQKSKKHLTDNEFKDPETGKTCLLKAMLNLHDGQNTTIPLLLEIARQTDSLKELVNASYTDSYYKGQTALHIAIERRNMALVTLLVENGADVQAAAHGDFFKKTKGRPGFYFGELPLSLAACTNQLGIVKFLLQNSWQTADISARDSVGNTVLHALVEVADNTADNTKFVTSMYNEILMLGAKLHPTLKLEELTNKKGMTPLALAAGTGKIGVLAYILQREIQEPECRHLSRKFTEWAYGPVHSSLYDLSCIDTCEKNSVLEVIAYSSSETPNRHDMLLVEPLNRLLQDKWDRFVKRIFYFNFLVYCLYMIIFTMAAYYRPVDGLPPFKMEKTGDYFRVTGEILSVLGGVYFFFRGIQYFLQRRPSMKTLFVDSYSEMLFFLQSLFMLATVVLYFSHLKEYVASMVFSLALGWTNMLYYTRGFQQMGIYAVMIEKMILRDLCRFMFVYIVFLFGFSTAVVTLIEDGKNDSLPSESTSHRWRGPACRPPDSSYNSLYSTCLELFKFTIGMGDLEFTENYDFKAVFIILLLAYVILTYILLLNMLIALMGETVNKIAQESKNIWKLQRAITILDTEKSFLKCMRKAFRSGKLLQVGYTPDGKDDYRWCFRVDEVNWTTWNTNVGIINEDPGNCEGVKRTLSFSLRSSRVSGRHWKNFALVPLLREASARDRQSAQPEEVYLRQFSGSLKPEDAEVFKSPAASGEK

| Compound | Pe (permeability coefficient) ± SD [1] | protection in MES screening ([2]; 100 mg/kg i.p., 0.5 h, four mice) [%] | responders at 100 mg/kg ([2]; Mus musculus, ip, 100 mg/kg i.p., 0.5 h, read-out: MES screening: number of mice protected/number of mice tested (converted)) [%] | ED50 ([2]; Mus musculus, ip, mice, pretreatment time 0.5 h, (95% confidence limits)) [mg/kg] | responders at 100 mg/kg ([3]; four mice, read-out: protection in 6 Hz (32 mA) screening) [%] | responders at 100 mg/kg ([3]; read-out: 6 Hz (32 mA) screening: number of mice protected/number of mice tested (converted)) [%] | ED50 ([3]; mice, pretreatment time 0.5 h, (95% confidence limits)) [mg/kg] | scPTZ screening: number of mice protected/number of mice tested [4] | TD50 at 0.5 h [5] [mg/kg] | inhibition at 100 µM (TRPV1 (VR1) (h)) [%] |
| --- | --- | --- | --- | --- | --- | --- | --- | --- | --- | --- |
| Cn1c(=O)c2c(ncn2C)n(C)c1=O [CFN, Caffeine, reference compound] | 12.22 ± 0.94 10^−6 cm/s |  |  |  |  |  |  |  |  |  |
| CC(=O)NC(C(=O)N1CCN(c2ccccc2)CC1)c1ccccc1 (stereo not shown) [Compound 45, N-(2-oxo-1-phenyl-2-(4-phenylpiperazin-1-yl)ethyl)acetamide] |  | 75 | 75 | 125 | 75 | 75 | 81.6 | 0/4 | 268 | 36.1 |
